{
  "source": "patent US10016414B2",
  "about": "“Modulation of ubiquitination of synaptic proteins for the treatment of neurodegenerative and psychiatric disorders” (UNIVERSITY OF MASSACHUSETTS, priority 2010, dated 2018)",
  "key": {"[1]": {"system": "colocalization of β-adaptin with PSD-95", "test": "Colocalization of β-adaptin with PSD-95 puncta in cultured hippocampal neurons", "format": "cell-based, rat", "conditions": "roscovitine 10 μM, 45 min; control 100%±15.6%; n=5; mean±SEM", "description": "C. […] Representative confocal images from each condition are shown; β-adaptin and PSD-95 (scale bars, 10 μm). […] The number of costained puncta, as a percentage of total number of PSD-95 puncta, is expressed as a percentage of the number for DMSO control.\n(§1) Dissociated hippocampal cultures were prepared from E17-E18 rat brains as described previously (Zhang et al., 2008). Hippocampal neurons were plated on coverslips coated with poly-D-lysine and laminin at a density of 6600/cm2 and grown in Neurobasal medium supplemented with B27 and GlutaMax (Invitrogen) for 17-21 days in vitro (DIV). […] Images from each experiment were thresholded using identical values and analyzed by MetaMorph software. The colocalization was expressed as mean±S.E.M. and statistically compared using Student's t-test.\nTo assess whether PSD-95 monoubiquitination correlates with increased PSD-95 interaction with AP-2 in vivo, p35 knockout mice were analyzed, which have increased PSD-95 monoubiquitination. PSD-95 immunoprecipitated from brain lysates of p35 knockout and wildtype littermates was analyzed by β-adaptin immunoblot (FIG. 4B)."}, "[2]": {"system": "PSD-95 ubiquitination", "test": "PSD-95 ubiquitination in acute forebrain slices (PSD-95 immunoprecipitation, ubiquitin/FK1/FK2 immunoblot)", "format": "cell-based, mouse", "conditions": "roscovitine 10 μM, 45 min, acute mouse forebrain slices"}, "[3]": {"system": "PSD-95 protein levels", "test": "PSD-95 protein levels in acute forebrain slices (immunoblot, normalized to actin)", "format": "cell-based, mouse", "conditions": "roscovitine 10 μM, 45 min; control 100%±15.8%; n=3; p>0.5", "description": "PSD-95 immunoreactivity was normalized to that of actin and expressed as a percentage of DMSO control.\nBrains of adult p35 knockout mice and control littermates were gifts of Dr. Li-Huei Tsai (MIT). Brain lysates were prepared according to Zhang et al., (2008). Briefly, brains (without cerebellum) were first homogenized and lysed in 1% deoxycholate (DOC) lysis buffer (150 mM NaCl, 1% DOC, 50 mM Tris, pH 8.8), to which an equal volume of modified radioimmunoprecipitation assay (RIPA) buffer was added (150 mM NaCl, 1 mM ethylenediaminetetraacetic acid (EDTA), 1% Triton X-100, 0.1% SDS, 50 mM Tris/HCl pH 7.4) (Kalia et al., 2006). […] Protein concentrations of the lysates were determined by Detergent Compatible Protein Assay (Bio-Rad) and lysates (inputs) were analyzed by western blot to determine whether similar amounts of proteins were used in the experiments. […] Western blots were visualized by enhanced chemiluminescence (ECL, Amersham) and immunoreactive bands were digitally scanned and quantified with ImageJ software (NIH). Values were expressed as mean±S.E.M. and statistically compared using Student's t-test.\nAcute forebrain slices were prepared as previously described (Patel et al., 2003; Zhang et al., 2008). […] Values were expressed as mean±S.E.M. and statistically compared using analysis of variance (ANOVA). […]"}, "[4]": {"system": "colocalization of Mdm2 with PSD-95", "test": "Colocalization of Mdm2 with PSD-95 puncta in cultured hippocampal neurons (immunocytochemistry)", "format": "cell-based, rat", "conditions": "roscovitine 10 μM, 45 min; control 100%±24.8%; n=4; mean±SEM", "description": "Representative confocal images from each condition are shown; Mdm2 (green) and PSD-95 (red) (scale bars, 10 μm). […] The number of costained puncta, as a percentage of total PSD-95 puncta, are expressed as a percentage of the number for DMSO controls.\nas §1\nMdm2 has been identified as the ubiquitin ligase for PSD-95 in ubiquitination assays and in transfected Mdm2 knockout mouse embryonic fibroblasts (Colledge et al., 2003). […] To investigate whether Cdk5 regulates the interaction between Mdm2 and PSD-95, PSD-95 immunoprecipitated from brain lysates was analyzed in p35 knockout mice and wild-type littermates by immunoblotting with an Mdm2 antibody (FIG. 2A). […]"}},
  "data": [
    {"smiles": "CC[C@H](CO)Nc1nc(NCc2ccccc2)c2ncn(C(C)C)c2n1", "note": "[roscovitine]", "values": [
      {"measurement": "puncta positive for both PSD-95 and β-adaptin (percentage of DMSO control)", "setting": "[1]", "value": "192.5%±19%"},
      {"measurement": "increase in PSD-95 ubiquitination", "setting": "[2]", "value": "more than 2 fold"},
      {"measurement": "kind of PSD-95 ubiquitination (FK2 immunoreactive, FK1 not)", "setting": "[2]", "value": "increases PSD-95 monoubiquitination on multiple lysines"},
      {"measurement": "ubiquitination of PSD-95 (ubiquitin immunoreactivity normalized to immunoprecipitated PSD-95, percentage of DMSO control)", "setting": "[2]; control 100%±54.5%, n=4, mean±SEM", "value": "274.6%±71.6%"},
      {"measurement": "PSD-95 protein levels (normalized to actin, percentage of DMSO control)", "setting": "[3]", "value": "103.7%±18.7%"},
      {"measurement": "puncta positive for both PSD-95 and Mdm2 (percentage of DMSO control)", "setting": "[4]", "value": "149%±27.4%"}
    ]}
  ]
}
